This note sets out measurements from publication PMC8022203 (ACS infectious diseases, 2021).

This experiment deals with HadA (Mycobacterium tuberculosis, UniProt P9WFK1). The format is binding.
HadA, sequence (P9WFK1 whole entry): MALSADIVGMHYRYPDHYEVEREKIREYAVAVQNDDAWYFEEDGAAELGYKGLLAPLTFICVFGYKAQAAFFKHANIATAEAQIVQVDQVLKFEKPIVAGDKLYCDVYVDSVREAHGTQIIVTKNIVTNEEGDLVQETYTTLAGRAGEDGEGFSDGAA

On to `CCN(CC)c1ccc2cc(-c3ccc(/C=N/NC(N)=S)s3)c(=O)oc2c1` [Coum-TAC, (E)-((5-(7-((N,N)-diethylamino)-2-oxo-2H-chromen-3-yl)thiophen-2-yl)methylene)hydrazine-1-carbothioamide], for which the “UV-vis, fluorescence and ESI mass spectrometry of re-purified HadA” value is “EthA promotes the formation of a covalent adduct between Coum-TAC and HadA”.
